Reference: ChEMBL document CHEMBL1255169, “Synthesis, structure-affinity relationships, and radiolabeling of selective high-affinity 5-HT4 receptor ligands as prospective imaging probes for positron emission tomography” (J Med Chem, 2010)
Calls of active or inactive are those of the source. The rule behind the calls is not given here.

Assays:
[1] = biological target: 5-hydroxytryptamine receptor 1E (Homo sapiens, UniProt P28566); test: Binding affinity to human 5-HT1E receptor
[2] = biological target: Sigma non-opioid intracellular receptor 1 (Rattus norvegicus, UniProt Q9R0C9); test: Binding affinity to rat sigma 1 receptor
[3] = biological target: Sodium-dependent serotonin transporter (Homo sapiens, UniProt P31645); test: Binding affinity to human SERT
[4] = biological target: T1, 5-hydroxytryptamine receptor 2C (Homo sapiens, UniProt P28335); test: Binding affinity to human 5-HT2C receptor
T1 sequence (P28335 whole entry): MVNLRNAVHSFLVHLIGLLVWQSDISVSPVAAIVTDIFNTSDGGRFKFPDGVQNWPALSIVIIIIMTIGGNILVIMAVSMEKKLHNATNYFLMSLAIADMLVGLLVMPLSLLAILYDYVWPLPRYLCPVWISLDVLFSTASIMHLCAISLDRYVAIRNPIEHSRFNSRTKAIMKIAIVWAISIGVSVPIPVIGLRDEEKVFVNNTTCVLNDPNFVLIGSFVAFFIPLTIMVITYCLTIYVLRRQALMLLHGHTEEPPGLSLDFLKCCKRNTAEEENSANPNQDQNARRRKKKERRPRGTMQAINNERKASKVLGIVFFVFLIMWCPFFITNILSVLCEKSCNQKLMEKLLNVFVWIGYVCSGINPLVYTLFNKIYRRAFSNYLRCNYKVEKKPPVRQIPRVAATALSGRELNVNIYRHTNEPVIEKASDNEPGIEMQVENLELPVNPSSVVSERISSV

[5] = biological target: Histamine H1 receptor (Cavia porcellus, UniProt P31389); test: Binding affinity to guinea pig histamine H1 receptor
[6] = biological target: Muscarinic acetylcholine receptor M1 (Homo sapiens, UniProt P11229); test: Binding affinity to human muscarinic M1 receptor
[7] = biological target: Muscarinic acetylcholine receptor M4 (Homo sapiens, UniProt P08173); test: Binding affinity to human muscarinic M4 receptor
[8] = Binding affinity to BZP receptor in rat brain; format: tissue-based
[9] = biological target: Histamine H2 receptor (Cavia porcellus, UniProt P47747); test: Binding affinity to guinea pig histamine H2 receptor
[10] = biological target: T2, 5-hydroxytryptamine receptor 4 (Homo sapiens, UniProt Q13639); test: Antagonist activity at 5HT4 receptor expressed in HEK293/L9 cells by cAMP assay; format: functional, cell-based
[11] = biological target: D(1B) dopamine receptor (Homo sapiens, UniProt P21918); test: Binding affinity to human dopamine D5 receptor
[12] = biological target: Beta-3 adrenergic receptor (Rattus norvegicus, UniProt P26255); test: Binding affinity to rat adrenergic beta3 receptor
[13] = biological target: T3, Alpha-2C adrenergic receptor (Homo sapiens, UniProt P18825); test: Binding affinity to human adrenergic Alpha-2C receptor
T3 sequence (P18825 whole entry): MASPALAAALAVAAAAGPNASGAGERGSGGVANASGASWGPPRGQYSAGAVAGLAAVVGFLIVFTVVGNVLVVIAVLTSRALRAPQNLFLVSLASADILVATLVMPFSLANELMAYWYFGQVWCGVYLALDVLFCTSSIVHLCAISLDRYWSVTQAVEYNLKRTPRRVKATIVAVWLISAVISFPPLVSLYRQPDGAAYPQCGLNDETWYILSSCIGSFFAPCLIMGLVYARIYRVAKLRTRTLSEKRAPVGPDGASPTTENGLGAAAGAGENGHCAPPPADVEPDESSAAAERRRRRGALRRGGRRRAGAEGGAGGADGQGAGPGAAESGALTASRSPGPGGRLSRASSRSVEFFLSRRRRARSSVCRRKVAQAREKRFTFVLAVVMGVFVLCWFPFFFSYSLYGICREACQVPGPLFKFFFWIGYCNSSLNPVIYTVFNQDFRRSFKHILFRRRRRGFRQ

[14] = biological target: T4, D(4) dopamine receptor (Rattus norvegicus, UniProt P30729); test: Binding affinity to rat dopamine D4 receptor
T4 sequence (P30729 whole entry): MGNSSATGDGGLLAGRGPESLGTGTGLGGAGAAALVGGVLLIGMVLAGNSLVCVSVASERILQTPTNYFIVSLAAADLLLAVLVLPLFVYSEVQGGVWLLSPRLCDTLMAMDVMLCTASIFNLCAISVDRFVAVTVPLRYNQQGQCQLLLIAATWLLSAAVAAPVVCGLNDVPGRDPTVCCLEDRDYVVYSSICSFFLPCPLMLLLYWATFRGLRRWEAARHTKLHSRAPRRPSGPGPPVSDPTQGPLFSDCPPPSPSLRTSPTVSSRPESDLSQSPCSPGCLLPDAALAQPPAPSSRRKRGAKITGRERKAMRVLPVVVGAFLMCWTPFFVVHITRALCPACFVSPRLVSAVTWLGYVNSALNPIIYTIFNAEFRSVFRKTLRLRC

[15] = biological target: D(2) dopamine receptor (Rattus norvegicus, UniProt P61169); test: Binding affinity to rat dopamine D2 receptor
[16] = biological target: 5-hydroxytryptamine receptor 3A (Homo sapiens, UniProt P46098); test: Binding affinity to human 5-HT3 receptor
[17] = biological target: Sodium-dependent dopamine transporter (Homo sapiens, UniProt Q01959); test: Binding affinity to human DAT
[18] = biological target: D(1A) dopamine receptor (Rattus norvegicus, UniProt P18901); test: Binding affinity to rat dopamine D1 receptor
[19] = biological target: 5-hydroxytryptamine receptor 1D (Homo sapiens, UniProt P28221); test: Binding affinity to human 5-HT1D receptor
[20] = biological target: T2, 5-hydroxytryptamine receptor 4; test: Agonist activity at 5HT4 receptor expressed in HEK293/L9 cells by cAMP assay; format: functional, cell-based
[21] = biological target: T2, 5-hydroxytryptamine receptor 4; test: Inverse agonist activity at 5HT4 receptor expressed in HEK293/L9 cells by cAMP assay; format: functional, cell-based

T2 sequence (Q13639 whole entry): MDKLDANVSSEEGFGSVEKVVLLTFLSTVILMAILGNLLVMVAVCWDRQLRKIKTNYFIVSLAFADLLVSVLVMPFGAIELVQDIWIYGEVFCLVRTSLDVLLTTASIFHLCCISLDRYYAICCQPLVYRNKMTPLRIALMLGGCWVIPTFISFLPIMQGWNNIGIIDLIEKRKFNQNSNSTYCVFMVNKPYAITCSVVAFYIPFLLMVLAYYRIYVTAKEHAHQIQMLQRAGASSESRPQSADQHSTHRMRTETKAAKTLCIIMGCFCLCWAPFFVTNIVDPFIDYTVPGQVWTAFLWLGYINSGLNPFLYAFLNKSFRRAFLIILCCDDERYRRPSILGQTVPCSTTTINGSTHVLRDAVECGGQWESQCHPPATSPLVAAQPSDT
Sigma non-opioid intracellular receptor 1, sequence (Q9R0C9 whole entry): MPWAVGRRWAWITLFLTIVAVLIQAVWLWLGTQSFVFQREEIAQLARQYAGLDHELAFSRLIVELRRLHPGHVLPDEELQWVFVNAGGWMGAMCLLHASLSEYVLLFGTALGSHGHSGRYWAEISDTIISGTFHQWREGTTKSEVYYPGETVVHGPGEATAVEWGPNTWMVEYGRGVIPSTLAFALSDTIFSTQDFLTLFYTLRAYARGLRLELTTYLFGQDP
Histamine H1 receptor, sequence (P31389 whole entry): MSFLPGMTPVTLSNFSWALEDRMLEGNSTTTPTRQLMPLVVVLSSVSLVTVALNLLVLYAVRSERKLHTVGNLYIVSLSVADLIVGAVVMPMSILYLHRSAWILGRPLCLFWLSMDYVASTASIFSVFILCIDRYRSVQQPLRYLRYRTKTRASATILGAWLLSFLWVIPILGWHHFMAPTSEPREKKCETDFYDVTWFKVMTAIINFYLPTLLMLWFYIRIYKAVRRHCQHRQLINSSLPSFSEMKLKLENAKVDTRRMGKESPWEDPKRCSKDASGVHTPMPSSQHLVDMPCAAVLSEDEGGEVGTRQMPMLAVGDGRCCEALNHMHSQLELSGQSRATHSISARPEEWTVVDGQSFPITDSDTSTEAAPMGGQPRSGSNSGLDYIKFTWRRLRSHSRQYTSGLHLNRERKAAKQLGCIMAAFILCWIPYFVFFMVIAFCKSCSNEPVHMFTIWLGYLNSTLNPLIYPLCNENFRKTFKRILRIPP
D(1B) dopamine receptor, sequence (P21918 whole entry): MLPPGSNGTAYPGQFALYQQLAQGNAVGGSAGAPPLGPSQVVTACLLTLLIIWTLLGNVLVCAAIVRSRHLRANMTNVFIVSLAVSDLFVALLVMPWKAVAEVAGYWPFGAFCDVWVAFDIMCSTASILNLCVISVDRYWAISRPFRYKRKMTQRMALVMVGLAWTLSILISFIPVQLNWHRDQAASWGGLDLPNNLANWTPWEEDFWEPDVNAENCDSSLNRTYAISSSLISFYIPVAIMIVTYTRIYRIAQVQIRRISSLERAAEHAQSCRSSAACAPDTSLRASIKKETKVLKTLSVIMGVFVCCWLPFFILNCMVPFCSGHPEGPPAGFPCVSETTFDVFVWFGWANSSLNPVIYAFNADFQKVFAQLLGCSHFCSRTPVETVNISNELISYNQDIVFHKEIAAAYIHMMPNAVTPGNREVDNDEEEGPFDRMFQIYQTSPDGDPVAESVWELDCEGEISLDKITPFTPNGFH
5-hydroxytryptamine receptor 3A, sequence (P46098 whole entry): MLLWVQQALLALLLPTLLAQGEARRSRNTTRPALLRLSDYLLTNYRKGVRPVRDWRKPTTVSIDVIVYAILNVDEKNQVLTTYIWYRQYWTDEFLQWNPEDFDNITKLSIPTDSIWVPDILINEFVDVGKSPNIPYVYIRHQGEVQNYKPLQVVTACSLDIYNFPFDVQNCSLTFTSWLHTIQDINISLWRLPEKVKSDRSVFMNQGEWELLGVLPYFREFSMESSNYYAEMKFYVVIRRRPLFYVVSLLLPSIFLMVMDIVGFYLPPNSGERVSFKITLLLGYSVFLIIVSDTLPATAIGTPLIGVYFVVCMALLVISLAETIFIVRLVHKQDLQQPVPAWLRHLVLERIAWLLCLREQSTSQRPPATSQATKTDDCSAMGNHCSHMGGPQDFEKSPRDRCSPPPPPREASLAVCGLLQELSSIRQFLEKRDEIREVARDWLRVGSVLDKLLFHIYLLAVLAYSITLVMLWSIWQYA
Sodium-dependent serotonin transporter, sequence (P31645 whole entry): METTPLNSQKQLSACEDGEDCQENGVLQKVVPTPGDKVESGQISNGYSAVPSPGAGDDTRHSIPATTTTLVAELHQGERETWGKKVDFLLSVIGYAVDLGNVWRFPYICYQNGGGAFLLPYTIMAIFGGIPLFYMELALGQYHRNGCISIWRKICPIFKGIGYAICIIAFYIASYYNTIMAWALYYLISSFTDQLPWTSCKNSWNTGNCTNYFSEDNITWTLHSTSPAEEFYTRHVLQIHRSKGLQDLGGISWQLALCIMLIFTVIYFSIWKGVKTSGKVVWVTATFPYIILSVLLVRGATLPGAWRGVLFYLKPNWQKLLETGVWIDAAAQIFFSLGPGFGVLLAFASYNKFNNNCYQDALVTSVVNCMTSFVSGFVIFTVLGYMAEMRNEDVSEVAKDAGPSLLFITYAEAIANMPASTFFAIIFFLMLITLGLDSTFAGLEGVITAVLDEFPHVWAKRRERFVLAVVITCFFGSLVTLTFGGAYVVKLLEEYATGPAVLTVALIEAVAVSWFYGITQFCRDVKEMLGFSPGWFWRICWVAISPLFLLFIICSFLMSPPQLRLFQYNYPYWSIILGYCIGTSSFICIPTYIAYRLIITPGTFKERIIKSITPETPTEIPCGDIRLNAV
5-hydroxytryptamine receptor 1D, sequence (P28221 whole entry): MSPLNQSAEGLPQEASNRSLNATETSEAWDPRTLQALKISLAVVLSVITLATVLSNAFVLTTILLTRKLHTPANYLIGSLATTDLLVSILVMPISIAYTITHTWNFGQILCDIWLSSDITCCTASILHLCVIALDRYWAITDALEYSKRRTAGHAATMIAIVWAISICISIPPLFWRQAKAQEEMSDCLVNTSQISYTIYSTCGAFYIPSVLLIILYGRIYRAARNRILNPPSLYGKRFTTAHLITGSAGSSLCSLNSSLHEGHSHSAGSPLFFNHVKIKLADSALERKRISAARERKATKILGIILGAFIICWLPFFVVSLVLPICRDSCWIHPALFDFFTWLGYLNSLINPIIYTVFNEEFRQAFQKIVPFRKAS
Sodium-dependent dopamine transporter, sequence (Q01959 whole entry): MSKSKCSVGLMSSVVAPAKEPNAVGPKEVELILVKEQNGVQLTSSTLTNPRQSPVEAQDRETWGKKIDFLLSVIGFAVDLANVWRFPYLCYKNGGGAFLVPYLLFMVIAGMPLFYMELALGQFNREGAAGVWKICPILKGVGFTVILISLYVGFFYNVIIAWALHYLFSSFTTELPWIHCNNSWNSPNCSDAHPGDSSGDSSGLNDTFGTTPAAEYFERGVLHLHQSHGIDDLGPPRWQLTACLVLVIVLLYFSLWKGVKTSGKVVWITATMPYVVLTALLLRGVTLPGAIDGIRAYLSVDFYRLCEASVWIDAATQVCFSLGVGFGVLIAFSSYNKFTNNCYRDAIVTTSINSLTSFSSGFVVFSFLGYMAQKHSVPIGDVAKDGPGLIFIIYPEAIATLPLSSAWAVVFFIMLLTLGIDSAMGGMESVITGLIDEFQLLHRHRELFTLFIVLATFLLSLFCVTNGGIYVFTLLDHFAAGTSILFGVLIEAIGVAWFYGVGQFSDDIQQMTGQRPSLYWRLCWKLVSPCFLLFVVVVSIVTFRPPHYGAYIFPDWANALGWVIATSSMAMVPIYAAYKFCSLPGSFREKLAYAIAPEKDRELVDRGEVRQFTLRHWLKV
D(2) dopamine receptor, sequence (P61169 whole entry): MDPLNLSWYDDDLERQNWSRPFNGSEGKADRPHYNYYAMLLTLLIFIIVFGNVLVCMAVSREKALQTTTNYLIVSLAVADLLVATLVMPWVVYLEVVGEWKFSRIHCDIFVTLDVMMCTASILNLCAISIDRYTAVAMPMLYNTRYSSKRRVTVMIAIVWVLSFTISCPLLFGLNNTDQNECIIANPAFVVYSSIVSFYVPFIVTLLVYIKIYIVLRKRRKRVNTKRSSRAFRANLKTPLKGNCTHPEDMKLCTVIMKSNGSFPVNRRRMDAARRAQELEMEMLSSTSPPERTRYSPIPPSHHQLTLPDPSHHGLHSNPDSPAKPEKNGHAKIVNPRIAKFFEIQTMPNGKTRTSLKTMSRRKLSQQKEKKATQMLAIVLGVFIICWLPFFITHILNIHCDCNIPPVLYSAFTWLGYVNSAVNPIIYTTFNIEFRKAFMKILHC
D(1A) dopamine receptor, sequence (P18901 whole entry): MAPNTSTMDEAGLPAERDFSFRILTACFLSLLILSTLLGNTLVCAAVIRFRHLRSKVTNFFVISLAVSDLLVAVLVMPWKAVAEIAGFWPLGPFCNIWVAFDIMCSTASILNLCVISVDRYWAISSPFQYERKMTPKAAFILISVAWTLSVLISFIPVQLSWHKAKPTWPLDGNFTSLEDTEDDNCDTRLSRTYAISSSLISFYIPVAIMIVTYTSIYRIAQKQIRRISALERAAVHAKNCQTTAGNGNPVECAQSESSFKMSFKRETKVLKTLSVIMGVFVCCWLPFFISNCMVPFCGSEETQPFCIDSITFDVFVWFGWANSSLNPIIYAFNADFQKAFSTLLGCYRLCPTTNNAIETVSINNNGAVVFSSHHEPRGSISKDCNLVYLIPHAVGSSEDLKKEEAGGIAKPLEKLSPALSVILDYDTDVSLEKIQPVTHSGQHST
Histamine H2 receptor, sequence (P47747 whole entry): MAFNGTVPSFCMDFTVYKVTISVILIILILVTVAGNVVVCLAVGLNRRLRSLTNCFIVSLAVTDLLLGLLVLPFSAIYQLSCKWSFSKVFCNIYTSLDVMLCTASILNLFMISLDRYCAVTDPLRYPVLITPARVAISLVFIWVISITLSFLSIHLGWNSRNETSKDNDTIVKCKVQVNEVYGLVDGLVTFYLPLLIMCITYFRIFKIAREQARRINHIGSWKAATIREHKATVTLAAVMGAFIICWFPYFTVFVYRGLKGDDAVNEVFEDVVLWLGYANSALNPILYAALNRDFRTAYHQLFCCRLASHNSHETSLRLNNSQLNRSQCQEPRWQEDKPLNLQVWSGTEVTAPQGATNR

Compound	Ki [2] [µM]	Ki [3] [µM]	Ki [4] [µM]	Ki [5] [µM]	Ki [6] [µM]	Ki [7] [µM]	Ki [8] [µM]	Ki [9] [µM]	Ki [11] [µM]	Ki [12] [µM]	Ki [13] [µM]	Ki [14] [µM]	Ki [15] [µM]	Ki [16] [µM]	Ki [17] [µM]	Ki [18] [µM]	Ki [19] [µM]	also measured
CCCCN1CCC(COC(=O)c2ccc(N)c(OC)c2)CC1	0.211	> 10	> 10	> 10	> 10	2.58	> 10	> 10	> 10	> 10	0.989	1.27	> 10	3.51	> 10	> 10	5.69	Ki [1]: > 10 µM; Efficacy [10]: Active
CCCCN1CCC(COC(=O)c2cc(Cl)c(NC)c3c2OCCO3)CC1	0.06	9.01	0.685	2.73	> 10	0.76	> 10	> 10	0.972	> 10	0.556	0.043	0.22	1.07	2.02	2.29	1.3	EC50 [20]: 0.0141 µM; Efficacy [21]: Active
